Experimental data: patent publication US20190070174A1, “METHODS OF TREATING NEURODEGENERATIVE DISEASES” (priority 2016, published 2019)

Key:
ATXN3Q26 = assay: Thioflavin T (ThT) fluorescence fibril formation assay; format: biochemical, human; conditions: ATXN3Q26 10 μM, compound 400 μM
Experimental: (§1) pGEX-6P1 plasmids encoding GST-ATXN3Q26 and GST-ATXN3Q55 were transformed in Rosetta (DE3) BL21 cells. Colonies grown overnight in LB/ampicillin/chloramphenicol plates at 37° C. were resuspended in 150 mL of the same selection medium and incubated at 37° C., 230 rpm for 2 hours. Bacterial cultures of 1 L of medium were prepared by inoculating 50 mL of the pre-culture and incubating at 37° C., 230 rpm until reaching an OD (600 nm) of 0.6 to 0.8. Expression of fusion proteins was then induced by adding 1 mM isopropyl-1-thio-D-galactopyranoside (IPTG) for 3 hours at 37° C. Cells were collected by centrifugation and stored at −20° C. […] Chromatography fractions were analyzed by SDS-PAGE, and the ones containing pure proteins were concentrated and protein concentration was determined in the Nanodrop (Thermo Scientific) by absorption at 280 nm.
(§2) Samples and blank control (only buffer) (110 μL) were dispensed in each well of a Black/Clear flat bottom 96-well plate (Corning), which was sealed and incubated at 37° C. with agitation in a FLUOstar Omega (BMG Labtech Inc) plate reader. Fluorescence of three replicates of each sample was measured every 10 min for up to 5 days. The […] wavelengths of the filter were 440 nm and 490 nm, respectively, and readings were taken using 90% gain adjustment. Values for protein solutions were normalized to readings of blank buffer.

ATXN3Q55 = assay: as above; format: biochemical, human; conditions: ATXN3Q55 10 μM, compound 400 μM
Experimental: as §1, §2

## O=C1CCc2ccc(OCCCCN3CCN(c4cccc(Cl)c4Cl)CC3)cc2N1 [aripiprazole]
ATXN3Q26
  fibril formation by normal ATXN3Q26: did not interfere with fibril formation
ATXN3Q55
  kinetics of ATXN3Q55 fibril formation in the presence or absence of compound: identical
